Experiments:
[1] = test system: HEK293 cells cotransfected with the FOP control vector; assay: HEK293 FOP assay (control reporter with non-functional TCF elements); assay type: cell-based; details: 16 hours
In short: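 Compound series from 50 μM down to 15 nM, prediluted in DMSO then 50-fold into CAFTY buffer (pH 7.4, 2 mM Ca2+, 0.01% BSA), tested alongside TOP cells on a Geneticin-selected HEK293 FOP line whose TCF elements are replaced by a random sequence; recombinant human Wnt-3a applied at 2500-5 ng/ml.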

TNKS1 = target: T1, TNKS1 (Homo sapiens, UniProt O95271); assay: TNKS1 Assay B (auto-parsylation, [3H]-NAD+ SPA); assay type: biochemical; details: 6 nM TNKS1, auto-parsylation, over night at room temperature
T1 construct: purchased BPS Bioscience, San Diego, USA 80579 (TNKS1 Histone Ribosylation Assay Kit)
T1 sequence (O95271 1-1327): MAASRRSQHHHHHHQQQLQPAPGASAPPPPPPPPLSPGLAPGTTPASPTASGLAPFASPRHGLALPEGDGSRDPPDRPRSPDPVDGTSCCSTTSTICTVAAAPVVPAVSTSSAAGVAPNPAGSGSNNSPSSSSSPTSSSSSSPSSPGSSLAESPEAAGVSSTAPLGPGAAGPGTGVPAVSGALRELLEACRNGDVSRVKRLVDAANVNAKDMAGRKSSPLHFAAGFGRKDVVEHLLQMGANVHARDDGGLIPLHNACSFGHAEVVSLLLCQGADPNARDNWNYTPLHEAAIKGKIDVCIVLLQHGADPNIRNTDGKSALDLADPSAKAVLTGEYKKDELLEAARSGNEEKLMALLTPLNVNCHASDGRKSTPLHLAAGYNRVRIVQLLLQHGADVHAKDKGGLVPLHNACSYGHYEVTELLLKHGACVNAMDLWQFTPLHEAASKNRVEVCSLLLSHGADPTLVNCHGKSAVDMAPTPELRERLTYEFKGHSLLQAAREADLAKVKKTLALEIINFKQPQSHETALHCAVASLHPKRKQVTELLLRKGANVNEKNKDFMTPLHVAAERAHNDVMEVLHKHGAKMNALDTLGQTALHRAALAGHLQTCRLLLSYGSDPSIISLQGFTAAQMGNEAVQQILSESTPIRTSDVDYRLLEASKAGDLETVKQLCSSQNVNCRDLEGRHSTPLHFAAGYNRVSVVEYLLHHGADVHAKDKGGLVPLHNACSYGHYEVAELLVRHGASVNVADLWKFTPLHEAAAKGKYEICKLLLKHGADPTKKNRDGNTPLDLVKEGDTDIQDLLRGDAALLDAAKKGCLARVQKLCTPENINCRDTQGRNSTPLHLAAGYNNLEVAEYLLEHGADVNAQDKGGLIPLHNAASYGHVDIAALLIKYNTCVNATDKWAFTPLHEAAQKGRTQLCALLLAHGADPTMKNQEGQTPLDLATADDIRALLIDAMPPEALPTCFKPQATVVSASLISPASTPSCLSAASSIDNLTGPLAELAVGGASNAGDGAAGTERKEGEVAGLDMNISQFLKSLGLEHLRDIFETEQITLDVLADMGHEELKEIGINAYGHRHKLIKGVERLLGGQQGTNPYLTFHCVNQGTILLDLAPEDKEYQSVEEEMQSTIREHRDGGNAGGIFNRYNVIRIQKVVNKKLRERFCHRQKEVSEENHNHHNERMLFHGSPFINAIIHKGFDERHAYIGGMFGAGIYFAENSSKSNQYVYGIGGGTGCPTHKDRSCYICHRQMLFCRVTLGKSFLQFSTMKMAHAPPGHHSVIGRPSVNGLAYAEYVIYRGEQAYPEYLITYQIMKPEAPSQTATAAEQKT
Protocol: The potency of selected compounds according to the invention was assessed applying a modified in vitro inhibition assay. Here, the TNKS1 catalyzed NAD^+-dependent ribosylation of the enzyme itself (auto-parsylation) was detected using [^3H]-NAD^+ as substrate and applying the scintillation proximity assay (SPA) method to detect tritium-labeled, parsylated TNKS1. The intensity of the readout signal is proportional to the incorporated [^3H]-NAD^+. Inhibition of TNKS1 leads to a decreased incorporation of [^3H]-NAD^+ and consequently to a lower readout signal intensity. The concentration of a test compound which inhibits the enzyme activity by 50% (corresponds to half of the normed readout signal intensity) is reported as IC50.
Protocol Auto-Parsylation Assay
The assay was conducted in a 96 well MTP format with the identical TNKS1 enzyme sample and NAD^+ sample as in the histone ribosylation assay with the following modifications: TNKS1 enzyme sample was diluted with a modified assay buffer (50 mM MES pH 7.0, 1 mM DTT, 0.01% Triton X-100) to a final concentration of 6 nM TNKS1 and 10×NAD^+ solution was diluted with the modified assay buffer (s. above) to a final 0.445×NAD^+ solution doped with 100 Bq/μl [^3H]-NAD^+[Catalog #NET443H050UC, Perkin Elmer, Waltham, Mass., USA]. Substrate solution (10 μl) was incubated with different test compound concentrations (2.5 ul in 10% DMSO in modified assay buffer) or control (2.5 ul 10% DMSO in modified assay buffer only) and enzyme (10 μl) over night at room temperature. Incorporated tritium was measured after addition of 50 μl SPA beads (1 mg/ml) [Catalog #RPNQ0095 20 mg/ml, Perkin Elmer, Waltham, Mass., USA; diluted 1:10 with Dulbecco's phosphate buffered saline, PBS Catalog #D8537, Sigma-Aldrich, Steinheim, Germany] and detection of the photon emission with a beta count plate reader [Wallac MicroBeta®, Perkin Elmer, Waltham, Mass., USA].

SMILES	IC50 (TNKS1) [nM]	IC50 [1] [nM]	IC50 ([1]; Homo sapiens) [nM]
CNC(=O)c1[nH]cnc1C(=O)NC1CCC(C(=O)Nc2ccc(F)cc2Cl)CC1OC (stereo not drawn) [Example 37, N^4-{(1α,2β,4β)-4-[(2-chloro-4-fluorophenyl)carbamoyl]-2-methoxycyclohexyl}-N^5-methyl-1H-imidazole-4,5-dicarboxamide]	> 10000	≥ 50000	
O=C(NCC1CCCO1)c1nc[nH]c1C(=O)N[C@H]1CC[C@H](C(=O)Nc2cnccc2Cl)CC1 (stereo partly drawn) [Example 97, N^5-{trans-4-[(4-chloropyridin-3-yl)carbamoyl]cyclohexyl}-N^4-(tetrahydrofuran-2-ylmethyl)-1H-imidazole-4,5-dicarboxamide]	45		18000
COC(C)(C)CNC(=O)c1nc[nH]c1C(=O)N[C@H]1CC[C@H](C(=O)Nc2cnccc2Cl)CC1 [Example 98, N^5-{trans-4-[(4-chloropyridin-3-yl)carbamoyl]cyclohexyl}-N^4-(2-methoxy-2-methylpropyl)-1H-imidazole-4,5-dicarboxamide]	54		≥ 50000
COC(C)(C)CNC(=O)c1nc[nH]c1C(=O)N[C@H]1CC[C@H](C(=O)Nc2cc(C)c(F)cc2Cl)CC1 [Example 101, N^5-{trans-4-[(2-chloro-4-fluoro-5-methylphenyl)carbamoyl]cyclohexyl}-N^4-(2-methoxy-2-methylpropyl)-1H-imidazole-4,5-dicarboxamide]	160		35000
Cc1cc(C)n2ncc(C(=O)N[C@H]3CC[C@H](C(=O)Nc4ccncc4Cl)CC3)c2n1 [Example 102, N-{trans-4-[(3-chloropyridin-4-yl)carbamoyl]cyclohexyl}-5,7-dimethylpyrazolo[1,5-a]pyrimidine-3-carboxamide]	330		≥ 50000
O=C(N[C@H]1CC[C@H](C(=O)Nc2ccncc2Cl)CC1)c1cnc2cccnn12 [Example 103, N-{trans-4-[(3-chloropyridin-4-yl)carbamoyl]cyclohexyl}imidazo[1,2-b]pyridazine-3-carboxamide]	520		27000
Cc1cnc2c(C(=O)N[C@H]3CC[C@H](C(=O)Nc4ccncc4Cl)CC3)cnn2c1 [Example 104, N-{trans-4-[(3-chloropyridin-4-yl)carbamoyl]cyclohexyl}-6-methyl pyrazolo[1,5-a]pyrimidine-3-carboxamide]	63		≥ 50000
CCOC(=O)c1cnc2c(C(=O)N[C@H]3CC[C@H](C(=O)Nc4ccc(F)cc4Cl)CC3)cnn2c1 [Example 106, ethyl 3-({trans-4-[(2-chloro-4-fluorophenyl)carbamoyl]cyclohexyl}carbamoyl)pyrazolo[1,5-a]pyrimidine-6-carboxylate]	49		≥ 50000
O=C(N[C@H]1CC[C@H](C(=O)Nc2ccc(F)cc2Cl)CC1)c1cnn2ccc(N3CCOCC3)nc12 [Example 107, N-{trans-4-[(2-chloro-4-fluorophenyl)carbamoyl]cyclohexyl}-5-(morpholin-4-yl)pyrazolo[1,5-a]pyrimidine-3-carboxamide]	120		≥ 50000
O=C(N[C@H]1CC[C@H](C(=O)Nc2ccc(F)cc2Cl)CC1)c1cnn2ccc(N3CCCC3)nc12 [Example 108]	52		≥ 50000
CN1CCN(c2ccn3ncc(C(=O)N[C@H]4CC[C@H](C(=O)Nc5ccc(F)cc5Cl)CC4)c3n2)CC1 [Example 109]	62		≥ 50000
COCc1cc(C)n2ncc(C(=O)N[C@H]3CC[C@H](C(=O)Nc4ccc(F)cc4Cl)CC3)c2n1 [Example 110, N-{trans-4-[(2-chloro-4-fluorophenyl)carbamoyl]cyclohexyl}-5-(methoxymethyl)-7-methylpyrazolo[1,5-a]pyrimidine-3-carboxamide]	310		≥ 50000

Further compounds by falling IC50 (TNKS1), results first:

IC50 (TNKS1) [nM]	SMILES	IC50 [1] [nM]	IC50 ([1]; Homo sapiens) [nM]
2400	O=C(NCC(F)(F)F)c1nc[nH]c1C(=O)N[C@H]1CC[C@H](C(=O)Nc2cc(N3CCOCC3)ccc2Cl)CC1 [Example 95, N^5-(trans-4-{[2-chloro-5-(morpholin-4-yl)phenyl]carbamoyl}cyclohexyl)-N^4-(2,2,2-trifluoroethyl)-1H-imidazole-4,5-dicarboxamide]		39000
1300	CC(C)(O)CNC(=O)c1nc[nH]c1C(=O)N[C@H]1CC[C@H](C(=O)Nc2cc(N3CCOCC3)ccc2Cl)CC1 [Example 94, N^5-(trans-4-{[2-chloro-5-(morpholin-4-yl)phenyl]carbamoyl}cyclohexyl)-N^4-(2-hydroxy-2-methylpropyl)-1H-imidazole-4,5-dicarboxamide]		≥ 50000
790	O=C(NCCC1CC1)c1nc[nH]c1C(=O)N[C@H]1CC[C@H](C(=O)Nc2cc(N3CCOCC3)ccc2Cl)CC1 [Example 93, N^5-(trans-4-{[2-chloro-5-(morpholin-4-yl)phenyl]carbamoyl}cyclohexyl)-N^4-(2-cyclopropylethyl)-1H-imidazole-4,5-dicarboxamide]		12000
190	O=C(N[C@H]1CC[C@H](C(=O)Nc2ccncc2Cl)CC1)c1cnn2cccnc12 [Example 105, N-{trans-4-[(3-chloropyridin-4-yl)carbamoyl]cyclohexyl}pyrazolo[1,5-a]pyrimidine-3-carboxamide]		≥ 50000
180	Cc1cc(NC(=O)[C@H]2CC[C@H](NC(=O)c3[nH]cnc3C(=O)NCC(C)(C)O)CC2)c(Cl)cc1F [Example 100, N^5-{trans-4-[(2-chloro-4-fluoro-5-methylphenyl)carbamoyl]cyclohexyl}-N^4-(2-hydroxy-2-methylpropyl)-1H-imidazole-4,5-dicarboxamide]		39000
68	COCC(C)NC(=O)c1nc[nH]c1C(=O)N[C@H]1CC[C@H](C(=O)Nc2cnccc2Cl)CC1 (stereo partly drawn) [Example 99, N^5-{trans-4-[(4-chloropyridin-3-yl)carbamoyl]cyclohexyl}-N^4-(1-methoxypropan-2-yl)-1H-imidazole-4,5-dicarboxamide]		20000
40	CNC(=O)c1nc[nH]c1C(=O)N[C@H]1CC[C@H](C(=O)Nc2cnccc2Cl)CC1 [Example 96, N^5-{trans-4-[(4-chloropyridin-3-yl)carbamoyl]cyclohexyl}-N^4-methyl-1H-imidazole-4,5-dicarboxamide]		18000
